Test: Single-dose pharmacokinetics of omeprazole
Type: in vivo, healthy Chinese volunteers
Details: for AUC0-t / AUC0-∞ / Cmax: 20 mg single oral dose, mean ± SD; for Tmax: human, plasma, oral, 20 mg

AUC0-t (CYP2C19 *1/*1 (n = 263)): 466.2 ± 493.2 ng·h/mL | AUC0-∞ (CYP2C19 *1/*1 (n = 263)): 499.3 ± 498.4 ng·h/mL | Cmax (CYP2C19 *1/*1 (n = 263)): 309 ± 227 ng/mL | AUC0-t (CYP2C19 *1/*2 (n = 241)): 766.4 ± 529.4 ng·h/mL | AUC0-∞ (CYP2C19 *1/*2 (n = 241)): 817.8 ± 524.4 ng·h/mL | Cmax (CYP2C19 *1/*2 (n = 241)): 449 ± 309 ng/mL | AUC0-t (CYP2C19 *1/*3 (n = 48)): 707.8 ± 490.3 ng·h/mL | AUC0-∞ (CYP2C19 *1/*3 (n = 48)): 808.0 ± 545.9 ng·h/mL | Cmax (CYP2C19 *1/*3 (n = 48)): 440 ± 390 ng/mL | AUC0-t (CYP2C19 *1/*17 (n = 6)): 363.8 ± 232.6 ng·h/mL | AUC0-∞ (CYP2C19 *1/*17 (n = 6)): 366.5 ± 233.4 ng·h/mL | AUC0-t (CYP2C19 *2/*2 (n = 74)): 3379 ± 1421 ng·h/mL | AUC0-∞ (CYP2C19 *2/*2 (n = 74)): 3790 ± 1311 ng·h/mL | Cmax (CYP2C19 *2/*2 (n = 74)): 1130 ± 992 ng/mL | AUC0-t (CYP2C19 *2/*3 (n = 17)): 3908 ± 1560 ng·h/mL | AUC0-∞ (CYP2C19 *2/*3 (n = 17)): 4221 ± 1453 ng·h/mL | Cmax (CYP2C19 *2/*3 (n = 17)): 1040 ± 550 ng/mL | AUC0-t (CYP2C19 *2/*17 (n = 2)): 507.3 ± 150.3 ng·h/mL | AUC0-∞ (CYP2C19 *2/*17 (n = 2)): 693.0 ± 109.6 ng·h/mL | Cmax (CYP2C19 *2/*17 (n = 2)): 530 ± 344 ng/mL | AUC0-t (CYP2C19 *3/*3 (n = 2)): 3913 ± 493.0 ng·h/mL | AUC0-∞ (CYP2C19 *3/*3 (n = 2)): 4444 ± 793.4 ng·h/mL | Cmax (CYP2C19 *3/*3 (n = 2)): 884 ± 575 ng/mL | AUC0-t (CYP2C19 *3/*17 (n = 3)): 544.8 ± 14.52 ng·h/mL | AUC0-∞ (CYP2C19 *3/*17 (n = 3)): 547.0 ± 14.47 ng·h/mL | Cmax (CYP2C19 phenotype IM (n = 294)): 447 ± 322 ng/mL | AUC0-t (CYP2C19 phenotype NM (n = 263)): 466.16 ± 493.21 ng·h/mL | Cmax (CYP2C19 phenotype NM (n = 263)): 308 ± 227 ng/mL | AUC0-t (CYP2C19 phenotype PM (n = 93)): 3487.32 ± 1440.13 ng·h/mL | AUC0-∞ (CYP2C19 phenotype PM (n = 93)): 3883.09 ± 1331.02 ng·h/mL | Cmax (CYP2C19 phenotype PM (n = 93)): 1110 ± 916 ng/mL | AUC0-t (CYP2C19 phenotype RM (n = 6)): 363.77 ± 232.56 ng·h/mL | Cmax increase in PM (PM versus IM): 2.5 fold | Tmax (after administration in all groups (four phenotype groups)): 3.89 to 4.45 h | Tmax (after administration in all subjects (nine diplotype groups)): 1.33 to 4.6 h
SMILES: COc1ccc2[nH]c([S+]([O-])Cc3ncc(C)c(OC)c3C)nc2c1 (centres unmarked) [omeprazole]

— publication PMC9199891 (Clinical and Translational Science, 2022)
